# Reference: publication PMC11137182, “Selective and brain-penetrant ACSS2 inhibitors target breast cancer brain metastatic cells” (Frontiers in Pharmacology, 2024)
# Read-outs that look alike come from different tables or passages of the source.
# What was measured:
# [1] = test system: MDA-MB-231BR cells; experiment: BODIPY staining of lipid droplets; format: cell-based; details: 100 μM, 48 h
# Protocol: Cells were treated with 5uM BODIPY 493/503 (Invitrogen) and NucBlue® Live reagent (Invitrogen) in PBS for 15 min, washed 2x with 1xPBS, fixed using 4% paraformaldehyde for 30 min at RT in the dark and washed in 1xPBS prior to mounting and imaging on EVOS FL (Life Technologies) using […] for BODIPY and DAPI channel for NucBlue.
# [2] = test system: 4T1BR cells; experiment: Intracranial 4T1BR tumor model in vivo; design: species or system BalbC mice
# Protocol: Intracranial injections were performed as previously described ([Ciraku et al., 2021]). Briefly, Nu/Nu or BalbC female 4–6 week old mice from Charles River Laboratories (Wilmington, MA, United States) were immobilized using the Just for Mice ™ Stereotaxic Frame (Harvard Apparatus, Holliston, MA, United States) and injected intracranially with 5 μL of a 20,000 cells/μL solution of MDA-MB-231BR or 4T1BR cells stably expressing luciferase. Mice were injected intraperitoneally with 30 mg/kg of Dluciferin solution (Caliper Life Sciences, Hopkinton, MA) and results analyzed using Living Image software (Caliper Life Sciences, Waltham, MA, United States). For in vivo analog trials, mice were weighed daily and injected intraperitoneally with 50 mg/kg of AD-8007. Mice were euthanized 3 weeks after injection following survivial or at the end of drug treatment at indiciated day. The animal study was reviewed and approved by the Institutional Animal Care and Use Committee.
# Brains were dissected, fixed in 4% formalin and prepared for processing/sectioning/embedding/blocking to generate paraffin embedded slides. The slides containing brain metastatic tumors were deparaffinized by Xylene and subsequent rehydration was done by decreasing concentrations of ethanol-water mixture. Antigen retrieval was done by citrate buffer immersion and steaming the slides for 45 min. Tissue was treated with 200–400 ul 1% BSA+5% serum PBS solution for 1h. Primary incubation was done at 4 °C overnight using primary antibody anti-FasN (Cell Signaling Technologies, C20G5). Secondary antibody incubation was done for an hour at RT with HRP conjugated Anti-Rabbit Secondary antibody (Cell Signaling Technologies). at 1:100 dilution. For IHC the stain was developed using the DAB kit by Vectastain (Vector Labs, Burlingame, CA, United States). Finally, slides were mounted and imaged under a light microscope. H&E and Ki-67 staining were performed and assessed at TJU, Department of Pathology, Philadelphia, PA by board-certified pathologist.
# [3] = target: T1, ACSS2 (Homo sapiens, UniProt Q9NR19); experiment: SPR binding to immobilized ACSS2; details: mean
# T1 construct: His-tag (N); His-tag (C); made in house; host or cells: E. coli BL21 (DE3) RIL
# T1 sequence (Q9NR19 whole entry): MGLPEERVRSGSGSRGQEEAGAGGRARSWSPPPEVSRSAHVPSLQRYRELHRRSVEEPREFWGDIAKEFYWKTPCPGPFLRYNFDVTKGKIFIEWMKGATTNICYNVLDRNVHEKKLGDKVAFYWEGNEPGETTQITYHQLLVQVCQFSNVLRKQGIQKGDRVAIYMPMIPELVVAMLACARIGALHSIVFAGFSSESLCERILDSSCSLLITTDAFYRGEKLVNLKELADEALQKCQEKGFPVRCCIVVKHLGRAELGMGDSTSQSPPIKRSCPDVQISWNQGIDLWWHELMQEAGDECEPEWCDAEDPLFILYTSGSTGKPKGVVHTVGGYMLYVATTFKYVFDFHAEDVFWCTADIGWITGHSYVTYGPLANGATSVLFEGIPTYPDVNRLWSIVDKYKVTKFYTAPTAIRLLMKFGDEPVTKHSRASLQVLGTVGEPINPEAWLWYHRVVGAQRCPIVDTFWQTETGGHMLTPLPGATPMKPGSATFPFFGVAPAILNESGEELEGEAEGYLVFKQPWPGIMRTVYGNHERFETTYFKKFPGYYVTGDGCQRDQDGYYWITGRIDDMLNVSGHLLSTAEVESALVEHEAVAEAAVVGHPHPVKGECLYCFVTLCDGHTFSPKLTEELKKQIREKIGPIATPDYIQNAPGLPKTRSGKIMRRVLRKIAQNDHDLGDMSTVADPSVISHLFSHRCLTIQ
# Protocol: Overproduction of ACSS2 was achieved using a prokaryotic expression system. […] The bacterial expressions were then spun down, the supernatant discarded, and the pellets resuspended in 50 mM Tris HCl pH8.0, 800 mM NaCl, 5 mM Imidazole, 2 mM MgCl2, 10% Glycerol, 0.1 mg/mL Lysozyme, 1 mM Protease inhibitor (PMSF). After the cells were lysed via sonication, the sample was subjected to ultracentrifugation, and the clarified lysate was applied to a 5 mL Talon cobalt resin affinity column (Clonetech Laboratories, Mountain View, CA). The bound protein was washed with 300 mL wash buffer 1 (20 mM Tris HCl pH8.0, 800 mM NaCl, 15 mM Imidazole, 5 mM MgCl2, 10% Glycerol, 0.1% CHAPS) and 300 mL wash buffer 2 (20 mM Tris HCl pH8.0, 400 mM NaCl, 18 mM Imidazole, 5 mM MgCl2, 10% Glycerol) prior elution with 20 mM Tris HCl pH8.0, 400 mM NaCl, 300 mM Imidazole, 2 mM MgCl2, 5% Glycerol. Eluted ACSS2 was then dialyzed overnight into 20 mM Tris HCl pH8.0, 150 mM NaCl, 5% Glycerol, concentrated and applied to a Superdex S-200 (16/600) using the same buffer without Glycerol. ACSS2 fractions were pooled, concentrated to 3 mg/mL, aliquoted, and stored at −80°C. hACSS1 was obtained from a commercial vendor (www.mybiosource.com).
# All binding assays were performed on a ProteOn XPR36 SPR Protein Interaction Array System (Bio-Rad Laboratories, Hercules, CA, United States). The instrument temperature was set at 25°C for all kinetic analyses. ProteOn GLH sensor chips were preconditioned with two short pulses each (10 s) of 50 mM NaOH, 100 mM HCl, and 0.5% sodium […]. Then, the system was equilibrated with running buffer (1x PBS pH 7.4, 3% DMSO, and 0.005% polysorbate 20). The surface of a GLH sensor chip was activated with a 1:100 dilution of a 1:1 mixture of 1-ethyl-3-(3-dimethylaminopropyl) carbodiimide hydrochloride (0.2 M) and sulfo-N-hydroxysuccinimide (0.05 M). Immediately after chip activation, the human ACSS2 or hACSS1 proteins were prepared at a concentration of 10 μg/mL in 10 mM sodium acetate, pH 5.5, and injected across ligand flow channels for 5 min at a flow rate of 30 μL/min. Then, after unreacted protein had been washed out, excess active ester groups on the sensor surface were capped by a 5 min injection of 1M ethanolamine HCl (pH 8.0) at a flow rate of 5 μL/min. A reference surface was similarly created by immobilizing a nonspecific protein (IgG b12 anti-HIV-1 gp120; was obtained through the NIH AIDS Reagent Program, Division of AIDS, NIAID, NIH: Anti-HIV-1 gp120 Monoclonal (IgG1 b12) from Dr. Dennis Burton and Carlos Barbas) and was used as a background to correct nonspecific binding. […] Data were analyzed using the ProteOn Manager Software version 3.0 (Bio-Rad). The responses from the reference flow cell were subtracted to account for the nonspecific binding and injection artifacts. Experimental data were fitted to a simple 1:1 binding model. Experiments were performed in triplicate to detect kinetic and equilibrium dissociation constants (KD).
# [4] = test system: FASN; experiment: Immunoblot of FASN protein levels; format: cell-based; details: MDA-MB-231BR cells, 24 h
# Protocol: Immunoblotting protocols have been previously described. Briefly, cell lysates from one to five x 10^6 cells were prepared in radioimmune precipitation assay buffer (150 mM NaCl, 1% NP40, 0.5% DOC, 50 mM Tris HCL at pH 8, 0.1% SDS, 10% glycerol, 5 mM EDTA, 20 mM NaF, and 1 mM Na3VO4) supplemented with 1 μg/mL each of pepstatin, leupeptin, aprotinin, and 200 μg/mL PMSF. Lysates were cleared by centrifugation at 16,000 x g for 15 min at 4°C and analyzed by SDS-PAGE and autoradiography with chemiluminescence. Proteins were analyzed by immunoblotting using primary antibodies indicated above.
smiles,measurement,setting,value
N[C@H](C(=O)N1CCCC(c2ccccc2)(c2ccccc2)C1)C1CC1 [AD-8007],lipid droplet content,[1],significantly reduced lipid droplet content
same,Ki-67 staining,"[2]; 4T1BR intracranial, 10 days post treatment",reduced Ki-67 staining
same,survival,"[2]; 4T1BR intracranial, Kaplan Meyer",significantly extended survival
same,tumor burden (bioluminescence),"[2]; 4T1BR intracranial, immunecompetent mice, 10 days",reduced tumor burden
same,body weight,"[2]; immunecompetent mice, 10 days",did not cause significant weight lost
same,koff,"[3]; 1:1 binding model, n=3, read-out: koff",0.547 s⁻¹
same,kon,"[3]; 1:1 binding model, n=3, read-out: kon",4790 M⁻¹ s⁻¹
same,Kd,"[3]; 25°C, Langmuir isotherm equilibrium fit, n=3, read-out: KD equilibrium",117 µM
same,Kd,"[3]; global fit, n=3, read-out: KD kinetic/global",149 µM
same,protein levels of FASN,[4],reduced protein levels of FASN
